# Experimental data from patent US20260262643A1, “HERBICIDAL BENZOXAZINES” (FMC CORPORATION, priority 2022, published 2026).
# Assays:
# [1] = system: barnyardgrass; assay: Test C preemergence; format: in vivo, Echinochloa crusgalli
# How it was run: (§1)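 Greenhouse herbicide screen, 10-day duration. Test chemicals in solvent/surfactant blend were sprayed onto soil at sowing (pre) or onto 2–10 cm seedlings at one to two leaves (post); injury scored visually against controls, 0 no effect to 100 complete control.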
# [2] = system: blackgrass; assay: Test C preemergence; format: in vivo, Alopecurus myosuroides
# How it was run: as §1
# [3] = system: corn; assay: Test C preemergence; format: in vivo, Zea mays
# How it was run: as §1
# [4] = system: foxtail, giant; assay: Test C preemergence; format: in vivo, Setaria faberi
# Description: (§2) Seeds of plant species selected from barnyardgrass (Echinochloa crusgalli), blackgrass (Alopecurus myosuroides), corn (Zea mays), foxtail, giant (giant foxtail, Setaria faberi), green foxtail (Setaria viridis), goosegrass (Eleusine indica), kochia (Bassia scoparia), oat, wild (wild oat, Avena fatua), pigweed, palmer (palmer amaranth, palmer pigweed, Amaranthus palmeri), Pigweed, Redroot (redroot pigweed, Amaranthus retroflexus), ragweed (common ragweed, Ambrosia artemisiifolia), ryegrass, Italian ([…] ryegrass, Lolium multiflorum), soybean (Glycine max), and wheat (Triticum aestivum) were planted into a blend of loam soil and sand and treated preemergence with a directed soil spray using test chemicals formulated in a non-phytotoxic solvent mixture which included a surfactant. At the same time, plants selected from these crops and weed species and also galium (catchweed bedstraw, Galium aparine) and horseweed (Erigeron canadensis) were planted in pots containing the same blend of loam soil and sand and treated with postemergence applications of test chemicals formulated in the same manner. Plants ranged in height from 2 to 10 cm and were in the one- to two-leaf stage for the postemergence treatment. Treated plants and untreated controls were maintained in a greenhouse for 10 days, after which time all treated plants were compared to untreated controls and visually evaluated for injury. Plant response ratings, summarized in Table C, are based on a 0 to 100 scale where 0 is no effect and 100 is complete control. A dash (-) response means no test result.
# [5] = system: kochia; assay: Test C preemergence; format: in vivo, Bassia scoparia
# How it was run: as §1
# [6] = system: oat, wild; assay: Test C preemergence; format: in vivo, Avena fatua
# How it was run: as §1
# [7] = system: pigweed, palmer; assay: Test C preemergence; format: in vivo, Amaranthus palmeri
# How it was run: as §1
# [8] = system: ragweed; assay: Test C preemergence; format: in vivo, Ambrosia artemisiifolia
# How it was run: as §1
# [9] = system: ryegrass, Italian; assay: Test C preemergence; format: in vivo, Lolium multiflorum
# How it was run: as §1
# [10] = system: soybean; assay: Test C preemergence; format: in vivo, Glycine max
# How it was run: as §1
# [11] = system: wheat; assay: Test C preemergence; format: in vivo, Triticum aestivum
# How it was run: as §1
# [12] = system: barnyardgrass; assay: Test C postemergence; format: in vivo, Echinochloa crusgalli; conditions: 10 days, 0 to 100 scale (0 no effect, 100 complete control)
# How it was run: as §1
# [13] = system: blackgrass; assay: Test C postemergence; format: in vivo, Alopecurus myosuroides; conditions: 10 days, 0 to 100 scale (0 no effect, 100 complete control)
# How it was run: as §1
# [14] = system: corn; assay: Test C postemergence; format: in vivo, Zea mays; conditions: 10 days, 0 to 100 scale (0 no effect, 100 complete control)
# How it was run: as §1
# [15] = system: foxtail, giant; assay: Test C postemergence; format: in vivo, Setaria faberi; conditions: 10 days, 0 to 100 scale (0 no effect, 100 complete control)
# Description: as §2
# [16] = system: kochia; assay: Test C postemergence; format: in vivo, Bassia scoparia; conditions: 10 days, 0 to 100 scale (0 no effect, 100 complete control)
# How it was run: as §1
# [17] = system: oat, wild; assay: Test C postemergence; format: in vivo, Avena fatua; conditions: 10 days, 0 to 100 scale (0 no effect, 100 complete control)
# How it was run: as §1
# [18] = system: pigweed, palmer; assay: Test C postemergence; format: in vivo, Amaranthus palmeri; conditions: 10 days, 0 to 100 scale (0 no effect, 100 complete control)
# How it was run: as §1
# [19] = system: ragweed; assay: Test C postemergence; format: in vivo, Ambrosia artemisiifolia; conditions: 10 days, 0 to 100 scale (0 no effect, 100 complete control)
# How it was run: as §1
# [20] = system: ryegrass, Italian; assay: Test C postemergence; format: in vivo, Lolium multiflorum; conditions: 10 days, 0 to 100 scale (0 no effect, 100 complete control)
# How it was run: as §1
# [21] = system: soybean; assay: Test C postemergence; format: in vivo, Glycine max; conditions: 10 days, 0 to 100 scale (0 no effect, 100 complete control)
# How it was run: as §1
# [22] = system: wheat; assay: Test C postemergence; format: in vivo, Triticum aestivum; conditions: 10 days, 0 to 100 scale (0 no effect, 100 complete control)
# How it was run: as §1
# [23] = system: galium; assay: Test C postemergence; format: in vivo, Galium aparine; conditions: 10 days, 0 to 100 scale (0 no effect, 100 complete control)
# How it was run: as §1
# [24] = system: horseweed; assay: Test C postemergence; format: in vivo, Erigeron canadensis; conditions: 10 days, 0 to 100 scale (0 no effect, 100 complete control)
# How it was run: as §1
# [25] = system: barnyardgrass; assay: Test D flooded paddy test; format: in vivo, Echinochloa crus-galli; conditions: 250 g ai/ha, applied to paddy water, visual rating after 13 to 14 days, scale 0 to 100 (0 no effect, 100 complete control)
# How it was run: (§3)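 Seedlings reached the 2-leaf stage, then pots were flooded to 3 cm over the soil surface. Compound was applied into the water, depth was maintained, and plants stayed in the greenhouse 13 to 14 days before visual scoring (0–100) relative to controls.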
# [26] = system: ducksalad; assay: Test D flooded paddy test; format: in vivo, Heteranthera limosa; conditions: 250 g ai/ha, applied to paddy water, visual rating after 13 to 14 days, scale 0 to 100 (0 no effect, 100 complete control)
# How it was run: as §3
# [27] = system: rice; assay: Test D flooded paddy test; format: in vivo, Oryza sativa; conditions: 250 g ai/ha, applied to paddy water, visual rating after 13 to 14 days, scale 0 to 100 (0 no effect, 100 complete control)
# How it was run: as §3
# [28] = system: sedge, umbrella; assay: Test D flooded paddy test; format: in vivo, Cyperus difformis; conditions: 250 g ai/ha, applied to paddy water, visual rating after 13 to 14 days, scale 0 to 100 (0 no effect, 100 complete control)
# How it was run: as §3
# [29] = 500 g ai/ha, preemergence, 0 to 100 scale (0 no effect, 100 complete control)
# [30] = Preemergence, 125 g ai/ha, 0 to 100 scale, 0 no effect, 100 complete control
structure (smiles),measurement,setting,value
Cc1ncn(-c2cc(C(=O)N3CC(C(F)(F)F)Oc4c(Cl)cccc43)ccn2)n1 (stereo not shown) [Compound 321],Barnyardgrass plant response rating,[1]; [29],100
same,"Plant response rating, Barnyardgrass",[1]; [30],40
same,Blackgrass plant response rating,[2]; [29],90
same,"Plant response rating, Blackgrass",[2]; [30],80
same,Corn plant response rating,[3]; [29],40
same,"Plant response rating, Corn",[3]; [30],10
same,"Foxtail, Giant plant response rating",[4]; [29],100
same,"Plant response rating, Foxtail, Giant",[4]; [30],100
same,Kochia plant response rating,[5]; [29],90
same,"Plant response rating, Kochia",[5]; [30],20
same,"Oat, Wild plant response rating",[6]; [29],80
same,"Plant response rating, Oat, Wild",[6]; [30],0
same,"Pigweed, Palmer plant response rating",[7]; [29],100
same,"Plant response rating, Pigweed, Palmer",[7]; [30],50
same,Ragweed plant response rating,[8]; [29],80
same,"Plant response rating, Ragweed",[8]; [30],0
same,"Ryegrass, Italian plant response rating",[9]; [29],100
same,"Plant response rating, Ryegrass, Italian",[9]; [30],90
same,Soybean plant response rating,[10]; [29],40
same,"Plant response rating, Soybean",[10]; [30],0
same,Wheat plant response rating,[11]; [29],30
same,"Plant response rating, Wheat",[11]; [30],10
same,"Plant response rating, Barnyardgrass","[12]; 500 g ai/ha, postemergence",90
same,"Plant response rating, Barnyardgrass","[12]; Postemergence, 125 g ai/ha",20
same,"Plant response rating, Blackgrass","[13]; 500 g ai/ha, postemergence",90
same,"Plant response rating, Blackgrass","[13]; Postemergence, 125 g ai/ha",60
same,"Plant response rating, Corn","[14]; 500 g ai/ha, postemergence",90
same,"Plant response rating, Corn","[14]; Postemergence, 125 g ai/ha",50
same,"Plant response rating, Foxtail, Giant","[15]; 500 g ai/ha, postemergence",90
same,"Plant response rating, Foxtail, Giant","[15]; Postemergence, 125 g ai/ha",70
same,"Plant response rating, Kochia","[16]; 500 g ai/ha, postemergence",80
same,"Plant response rating, Kochia","[16]; Postemergence, 125 g ai/ha",60
same,"Plant response rating, Oat, Wild","[17]; 500 g ai/ha, postemergence",90
same,"Plant response rating, Oat, Wild","[17]; Postemergence, 125 g ai/ha",10
same,"Plant response rating, Pigweed, Palmer","[18]; 500 g ai/ha, postemergence",60
same,"Plant response rating, Pigweed, Palmer","[18]; Postemergence, 125 g ai/ha",10
same,"Plant response rating, Ragweed","[19]; 500 g ai/ha, postemergence",40
same,"Plant response rating, Ragweed","[19]; Postemergence, 125 g ai/ha",30
same,"Plant response rating, Ryegrass, Italian","[20]; 500 g ai/ha, postemergence",80
same,"Plant response rating, Ryegrass, Italian","[20]; Postemergence, 125 g ai/ha",60
same,"Plant response rating, Soybean","[21]; 500 g ai/ha, postemergence",100
same,"Plant response rating, Soybean","[21]; Postemergence, 125 g ai/ha",90
same,"Plant response rating, Wheat","[22]; 500 g ai/ha, postemergence",80
same,"Plant response rating, Wheat","[22]; Postemergence, 125 g ai/ha",20
same,"Plant response rating, Galium","[23]; 500 g ai/ha, postemergence",100
same,"Plant response rating, Galium","[23]; Postemergence, 125 g ai/ha",100
same,"Plant response rating, Horseweed","[24]; 500 g ai/ha, postemergence",0
same,"Plant response rating, Horseweed","[24]; Postemergence, 125 g ai/ha",0
same,"Plant response rating, Barnyardgrass (Flood)",[25],0
same,"Plant response rating, Ducksalad (Flood)",[26],0
same,"Plant response rating, Rice (Flood)",[27],0
same,"Plant response rating, Sedge, Umbrella (Flood)",[28],0
